Laboratory results: patent US12582654B2, “Cyano-substituted pyridine and cyano-substituted pyrimidine compound and preparation method therefor and application thereof” (BEIJING SCITECH-MQ PHARMACEUTICALS LIMITED, priority 2019, dated 2026)

Experiments:
[1] = target: T1, Ba/F3 ETV6-FGFR4-V550L cells (Homo sapiens, UniProt P22455, V550L, cells depend on it); experiment: Inhibition of cell proliferation (CCK-8), Ba/F3 ETV6-FGFR4-V550L cells; assay type: cell-based; conditions: 72 hours of incubation, read-out: Ba/F3 ETV6-FGFR4-V550L IC50
T1 construct: fused on or other part: N-terminal part of ETV6 (TEL), the oligomerising partner of the fusion; already named as the first entry; P41212 (Transcription factor ETV6)
T1 sequence (P22455 whole entry V550L, the tested form may be a part): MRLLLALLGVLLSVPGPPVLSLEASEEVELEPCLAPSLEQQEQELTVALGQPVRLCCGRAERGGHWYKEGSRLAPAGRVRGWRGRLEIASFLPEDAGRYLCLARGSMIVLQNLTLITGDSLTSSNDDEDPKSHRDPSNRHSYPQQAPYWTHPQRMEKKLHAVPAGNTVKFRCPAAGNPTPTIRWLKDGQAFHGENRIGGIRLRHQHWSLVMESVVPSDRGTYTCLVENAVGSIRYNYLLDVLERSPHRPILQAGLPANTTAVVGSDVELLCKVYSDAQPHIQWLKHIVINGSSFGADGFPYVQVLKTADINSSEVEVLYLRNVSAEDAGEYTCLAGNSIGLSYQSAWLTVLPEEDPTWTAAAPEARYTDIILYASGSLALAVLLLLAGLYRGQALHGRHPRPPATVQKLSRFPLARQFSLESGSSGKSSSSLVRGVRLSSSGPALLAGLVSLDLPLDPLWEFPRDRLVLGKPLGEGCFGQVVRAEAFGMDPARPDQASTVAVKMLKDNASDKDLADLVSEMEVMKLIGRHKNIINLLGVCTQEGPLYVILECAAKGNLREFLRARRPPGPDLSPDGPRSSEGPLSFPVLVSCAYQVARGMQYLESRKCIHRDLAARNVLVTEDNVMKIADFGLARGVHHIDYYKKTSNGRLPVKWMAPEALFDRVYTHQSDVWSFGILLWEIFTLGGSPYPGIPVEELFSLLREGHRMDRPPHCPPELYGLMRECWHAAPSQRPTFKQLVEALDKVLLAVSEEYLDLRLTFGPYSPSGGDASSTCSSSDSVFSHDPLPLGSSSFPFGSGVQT
Procedure: (§1) Compounds were assayed for inhibiting cell proliferation, and the specific method was as follows: • 1. Cells were cultured to a logarithmic growth phase, pipetted evenly, transferred to a 15 mL centrifuge tube, and centrifuged at 1000 rpm at room temperature for 4 minutes; • 2. The supernatant was discarded; 5 mL of complete medium was added and pipetted evenly; 10 μL of cell suspension was weighed, mixed well with 10 μL of 0.4% trypan blue, and counted under a cell counter; the proportion of living cells was ensured to be above 90%; • 3. The cell suspension was seeded into a 96-well plate (80 μL of cell suspension per well) according to the conditions shown in Table 5; in the outer 36 wells of the 96-well plate, no cells were added but only sterile water was added; only the inner 60 wells were used for cell assay and control; • 4. 5× compound dilution: the compounds were serially diluted 4-fold to give a total of 9 concentrations; 80-fold overall dilution was completed with complete medium, the resulting concentration was 5 times the final drug concentration, and DMSO concentration was 1.25%; • 5. 20 μL of the corresponding compounds with different concentrations were added to each well of assay wells of the 96-well plate; 20 μL of complete medium was added to positive and negative control wells and shaken well; and the final concentration of DMSO in each well was 0.25%; • 6. After 72 hours of incubation, 10 μL of CCK-8 reagent was added to each well and further incubated at 37° C. for 1-2 hours; and the OD value was read at 450 nm; 7. Cell survival rate (%)=[(As−Ab)/(Ac−Ab)]*100% • As: Assay well (medium containing cells, CCK-8, compound) • Ac: Control well (medium containing cells, CCK-8) • Ab: Blank well (medium without cell and compound, CCK-8) • 8. The values were imported into Graphpad Prism 5 software for IC50 calculation.

Ba/F3 ETV6-FGFR4 cells = target: T2, Ba/F3 ETV6-FGFR4 cells (Homo sapiens, UniProt P22455); experiment: Inhibition of cell proliferation (CCK-8), Ba/F3 ETV6-FGFR4 cells; assay type: cell-based; conditions: 72 hours of incubation, read-out: Ba/F3 ETV6-FGFR4 IC50
T2 construct: fused on or other part: N-terminal part of ETV6 (TEL), the oligomerising partner that makes the FGFR4 kinase constitutively active; P41212 (Transcription factor ETV6)
T2 sequence (P22455 whole entry, change not shown, the tested form may be a part): as the sequence (P22455 whole entry V550L, the tested form may be a part) above, with L550V counted along it
Procedure: as §1

FGFR4 kinase = FGFR4 kinase (Homo sapiens, UniProt P22455); experiment: Inhibition of FGFR4 kinase activity (ULight-labeled JAK-1 peptide, EU665/EU615 reading); assay type: biochemical; conditions: FGFR4 kinase 3.85 nM, ATP 100 μM, enzymatic reaction 2 hours
FGFR4 kinase, sequence (P22455 22-802): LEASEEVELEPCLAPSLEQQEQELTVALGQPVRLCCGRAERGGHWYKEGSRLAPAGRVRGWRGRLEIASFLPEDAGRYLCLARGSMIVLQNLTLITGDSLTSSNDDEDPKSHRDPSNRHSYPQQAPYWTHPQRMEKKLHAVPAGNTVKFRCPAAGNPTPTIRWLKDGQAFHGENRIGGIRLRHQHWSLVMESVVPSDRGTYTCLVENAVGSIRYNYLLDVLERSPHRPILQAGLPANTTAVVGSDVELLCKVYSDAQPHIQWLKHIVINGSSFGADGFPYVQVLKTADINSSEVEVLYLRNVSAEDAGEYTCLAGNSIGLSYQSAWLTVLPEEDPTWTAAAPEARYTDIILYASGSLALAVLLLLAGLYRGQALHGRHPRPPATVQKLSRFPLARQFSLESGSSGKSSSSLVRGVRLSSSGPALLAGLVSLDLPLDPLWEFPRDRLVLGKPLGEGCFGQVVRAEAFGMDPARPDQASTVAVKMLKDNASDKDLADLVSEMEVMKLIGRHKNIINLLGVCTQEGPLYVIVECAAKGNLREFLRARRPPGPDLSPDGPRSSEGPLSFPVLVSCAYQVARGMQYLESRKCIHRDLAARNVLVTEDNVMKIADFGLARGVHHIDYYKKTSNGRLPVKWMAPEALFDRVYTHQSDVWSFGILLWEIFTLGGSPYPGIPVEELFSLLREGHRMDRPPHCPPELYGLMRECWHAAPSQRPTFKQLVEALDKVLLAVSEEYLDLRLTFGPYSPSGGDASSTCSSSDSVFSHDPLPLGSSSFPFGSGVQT
Procedure: (§2) Assay of activity of small molecule compounds on inhibiting FGFR4 kinase and FGFR4 V550L mutant kinase. The assay method was as follows:
(§3) 1) Dilution of Compounds:
(§4) In a 96-well plate a, the compounds were serially diluted 3-fold with DMSO to form 11 concentrations, and the 12th concentration was pure DMSO (as a positive control); In a new 96-well plate b, the above solutions were diluted 25-fold with ultrapure water (DMSO concentration was 4%).
(§5) 2) Transferring Compounds to a 384-Well Plate:
(§6) The above solutions of compounds diluted with ultrapure water in the 96-well plate b were pipetted into corresponding wells of a 384-well plate.
(§7) 3) Adding 4× kinase solution: 2.5 μl of the above 4× kinase solutions were pipetted with a multi-channel pipette into corresponding reaction wells of the 384-well plate, and the mixture was mixed well and pre-reacted at room temperature for 5 minutes.
(§8) 4) Adding 2× substrate/ATP mixture: 5 μl of the above 2× substrate/ATP mixtures were pipetted with a multi-channel pipette into corresponding reaction wells of the 384-well plate.
(§9) 5) Negative control: negative control wells were set up in the 384-well plate by adding 2.5 μl of 4× substrate, 2.5 μl of 4× enzyme solution, 2.5 μl of 1× kinase Assay Buffer and 2.5 μl of ultrapure water containing 4% DMSO to each well.
(§10) 6) Centrifuging, mixing well, and reacting at room temperature in the dark for 2 hours.
(§11) 7) Terminating the Enzymatic Reaction:
(§12) 5 μl of the above 4× stop solutions were pipetted into corresponding wells of the 384-well plate, and the mixture was centrifuged, mixed well, and then reacted at room temperature for 5 minutes.
(§13) 8) Development of the Reaction:
(§14) 5 μl of the above 4× detection solutions were pipetted into corresponding wells of the 384-well plate, and the mixture was centrifuged, mixed well, and then reacted at room temperature for 1 hour.
(§15) 9) The 384-well plate was placed into a plate reader, and the signal was detected using the appropriate program.
(§16) 10) Analysis of IC50: Reading of well=10000*EU665 value/EU615 value Inhibition rate=(reading of positive control well−reading of assay well)/(reading of positive control well−reading of negative control well)*100%
(§17) The corresponding IC50 can be calculated by inputting the drug concentrations and corresponding inhibition rates into GraphPad Prism 5 and processing.
Assay Conditions for Screening FGFR4 Kinase Activity Inhibitory Molecule:
The final concentration of FGFR4 kinase in the reaction system was 3.85 nM, the final concentration of ATP was 100 μM, the final concentration of substrate ULight™-labeled JAK-1 (Tyr1023) Peptide was 100 nM, and the time for enzymatic reaction was 2 hours.
The highest final concentration of the compound in the reaction system was 2.5 μM. After serial 3-fold dilution, there were 11 concentrations in total, and the lowest final concentration was 0.042 nM. The final concentration of DMSO was 1%.

FGFR4 V550L kinase = FGFR4 V550L kinase (Homo sapiens, UniProt P22455, V550L); experiment: Inhibition of FGFR4 V550L mutant kinase activity (ULight-labeled PolyGT, EU665/EU615 reading); assay type: biochemical; conditions: FGFR4 V550L kinase 1 nM, ATP 10 μM, enzymatic reaction 2 hours
FGFR4 V550L kinase, sequence (P22455 22-802 V550L): as the sequence (P22455 22-802) above, with V529L counted along it
Procedure: as §2, §3, §4, §5, §6, §7, §8, §9, §10, §11, §12, §13, §14, §15, §16, §17
Assay Conditions for Screening FGFR4 V550L Kinase Activity Inhibitory Molecule:
The final concentration of FGFR4 V550L kinase in the reaction system was 1 nM, the final concentration of ATP was 10 μM, the final concentration of substrate ULight™-labeled PolyGT was 100 nM, and the time for enzymatic reaction was 2 hours.
The highest final concentration of the compound in the reaction system was 2.5 μM. After seral 3-fold dilution, there were 11 concentrations in total, and the lowest final concentration was 0.042 nM. The final concentration of DMSO was 1%.

Structure (SMILES)	GI50 [1] [nM]	GI50 (Ba/F3 ETV6-FGFR4 cells) [nM]	IC50 (FGFR4 kinase) [nM]	IC50 (FGFR4 V550L kinase) [nM]
C=CC(=O)Nc1cc(N2CCN(CC)CC2)ccc1Nc1ncc(C#N)c(Nc2ccc(O)cc2OC(C)C)n1 [Example 28, N-(2-((5-cyano-4-((4-hydroxy-2-isopropoxyphenyl)amino)pyrimidin-2-yl)amino)-5-(4-ethylpiperazin-1-yl)phenyl) acrylamide]	50 to 100	100 to 1000	≤ 10	≤ 10
C=CC(=O)Nc1cc(N2CCN(CC)CC2)ccc1Nc1ncc(C#N)c(Nc2ccc(Cl)cc2OC(C)C)n1 [Example 29, N-(2-((4-((4-chloro-2-isopropoxyphenyl)amino)-5-cyanopyrimidin-2-yl)amino)-5-(4-ethylpiperazin-1-yl)phenyl) acrylamide]	≤ 10	≤ 10	10 to 50	10 to 50
C=CC(=O)Nc1cc(N2CCN(CC)CC2)ccc1Nc1ncc(C#N)c(Nc2ccc(C)cc2OC(C)C)n1 [Example 30, N-(2-((5-cyano-4-((2-isopropoxy-4-methylphenyl)amino)pyrimidin-2-yl)amino)-5-(4-ethylpiperazin-1-yl)phenyl) acrylamide]	≤ 10	≤ 10	10 to 50	≤ 10
C=CC(=O)Nc1cc(N2CCN(CC)CC2)ccc1Nc1ncc(C#N)c(Nc2ccc(OC)cc2OC(C)C)n1 [Example 31, N-(2-((5-cyano-4-((2-isopropoxy-4-methoxyphenyl)amino)pyrimidin-2-yl)amino)-5-(4-ethylpiperazin-1-yl)phenyl) acrylamide]	≤ 10	≤ 10	≤ 10	10 to 50
C=CC(=O)Nc1cc(N2CCN(CC)CC2)ccc1Nc1ncc(C#N)c(Nc2ccc(OCCOC)cc2OC(C)C)n1 [Example 33, N-(2-((5-cyano-4-((2-isopropoxy-4-(2-methoxyethoxy)phenyl)amino)pyrimidin-2-yl)amino)-5-(4-ethylpiperazin-1-yl)phenyl) acrylamide]	≤ 10	≤ 10	≤ 10	10 to 50
C=CC(=O)Nc1cc(N2CCN(CC)CC2)ccc1Nc1ncc(C#N)c(Nc2ccc(C(F)(F)F)cc2OC(C)C)n1 [Example 34, N-(2-((5-cyano-4-((2-isopropoxy-4-(trifluoromethyl)phenyl)amino)pyrimidin-2-yl)amino)-5-(4-ethylpiperazin-1-yl)phenyl) acrylamide]	10 to 50	10 to 50	50 to 100	10 to 50
C=CC(=O)Nc1cc(N2CCN(CC)CC2)ccc1Nc1ncc(C#N)c(Nc2ccc(S(C)(=O)=O)cc2OC(C)C)n1 [Example 35, N-(2-((5-cyano-4-((2-isopropoxy-4-(methylsulfonyl)phenyl)amino)pyrimidin-2-yl)amino)-5-(4-ethylpiperazin-1-yl)phenyl) acrylamide]	10 to 50	10 to 50	10 to 50	10 to 50
C=CC(=O)Nc1cc(N2CCN(CC)CC2)ccc1Nc1ncc(C#N)c(Nc2ccc(C3CC3)cc2OC(C)C)n1 [Example 36, N-(2-((5-cyano-4-((4-cyclopropyl-2-isopropoxyphenyl)amino)pyrimidin-2-yl)amino)-5-(4-ethylpiperazin-1-yl)phenyl) acrylamide]	10 to 50	10 to 50	10 to 50	10 to 50
C=CC(=O)Nc1cc(N2CCN(C(C)C)CC2)ccc1Nc1ncc(C#N)c(Nc2ccccc2OC(C)C)n1 [Example 37, N-(2-((5-cyano-4-((2-isopropoxyphenyl)amino)pyrimidin-2-yl)amino)-5-(4-isopropylpiperazin-1-yl)phenyl) acrylamide]	≤ 10	≤ 10	≤ 10	≤ 10
C=CC(=O)Nc1cc(N2CCN(CC)CC2)ccc1Nc1ncc(C#N)c(Nc2ccc(CCC)cc2OC(C)C)n1 [Example 38, N-(2-((5-cyano-4-((2-isopropoxy-4-propylphenyl)amino)pyrimidin-2-yl)amino)-5-(4-ethylpiperazin-1-yl)phenyl) acrylamide]	10 to 50	10 to 50	50 to 100	50 to 100
C=CC(=O)Nc1cc(N2CCC(N3CCN(C)CC3)CC2)ccc1Nc1ncc(C#N)c(Nc2ccc(F)cc2OC(C)C)n1 [Example 39, N-(2-((5-cyano-4-((4-fluoro-2-isopropoxyphenyl)amino)pyrimidin-2-yl)amino)-5-(4-(4-methylpiperazin-1-yl)piperidin-1-yl)phenyl) acrylamide]	≤ 10	≤ 10	≤ 10	≤ 10
C=CC(=O)Nc1cc(N2CCC(N3CCN(C)CC3)CC2)c(F)cc1Nc1ncc(C#N)c(Nc2ccc(F)cc2OC(C)C)n1 [Example 40, N-(2-((5-cyano-4-((4-fluoro-2-isopropoxyphenyl)amino)pyrimidin-2-yl)amino)-4-fluoro-5-(4-(4-methylpiperazin-1-yl)piperidin-1-yl)phenyl) acrylamide]	≤ 10	≤ 10	10 to 50	10 to 50
C=CC(=O)Nc1cc(N2CCC(N3CCN(C)CC3)CC2)ccc1Nc1ncc(C#N)c(Nc2ccc(C(N)=O)cc2OC(C)C)n1 [Example 41, 4-((2-((2-acrylamido-4-(4-(4-methylpiperazin-1-yl)piperidin-1-yl)phenyl)amino)-5-cyanopyrimidin-4-yl)amino)-3-isopropoxybenzamide]	100 to 1000	100 to 1000	10 to 50	≤ 10
C=CC(=O)Nc1cc(N2CCC(N3CCC(C)(O)CC3)CC2)ccc1Nc1ncc(C#N)c(Nc2ccccc2OC(C)C)n1 [Example 42, N-(2-((5-cyano-4-((2-isopropoxyphenyl)amino)pyrimidin-2-yl)amino)-5-(4-hydroxy-4-methyl-[1,4′-bipiperidin]-1′-yl)phenyl) acrylamide]	≤ 10	≤ 10	≤ 10	≤ 10
